Measured values reported in patent US12595266B2, “Pesticidally active heterocyclic derivatives with sulfur containing substituents” (SYNGENTA CROP PROTECTION AG, priority 2020, dated 2026).

Experiments:
Type in all cases: in vivo
[1] = test system: Carpocapsa (Cydia) Pomonella (Codling Moth); assay: Activity against Carpocapsa (Cydia) pomonella (codling moth), larvicide, feeding/contact; conditions: 336 h, application rate of 12.5 ppm, paraffin-coated diet cubes sprayed, L1 larvae, 14 days after infestation, 26-27° C.
Protocol: Example B10: Activity Against Carpocapsa (Cydia) Pomonella (Codling Moth) Larvicide, Feeding/Contact
Diet cubes coated with paraffin were sprayed with diluted test solutions in an application chamber. After drying off the treated cubes (10 replicates) were infested with 1 L1 larvae. Samples were incubated at 26-27° C. and checked 14 days after infestation for mortality and growth inhibition.

[2] = test system: Diabrotica balteata (Corn Root Worm); assay: Activity against Diabrotica balteata (corn root worm); conditions: 96 h, application rate of 200 ppm, maize sprouts sprayed, L2 larvae, 4 days after infestation, read-out: effect in at least one of the two categories (mortality or growth inhibition)
Protocol: Example B3: Activity Against Diabrotica balteata (Corn Root Worm)
Maize sprouts placed onto an agar layer in 24-well microtiter plates were treated with aqueous test solutions prepared from 10′000 ppm DMSO stock solutions by spraying. After drying, the plates were infested with L2 larvae (6 to 10 per well). The samples were assessed for mortality and growth inhibition in comparison to untreated samples 4 days after infestation.

[3] = test system: Chilo suppressalis (Striped Rice Stemborer); assay: Activity against Chilo suppressalis (striped rice stemborer); conditions: 144 h, application rate of 200 ppm, artificial diet, L2 larvae, 6 days after infestation, read-out: control (at least one of mortality, anti-feedant effect, growth inhibition)
Protocol: Example B2: Activity Against Chilo suppressalis (Striped Rice Stemborer)
24-well microtiter plates with artificial diet were treated with aqueous test solutions prepared from 10′000 ppm DMSO stock solutions by pipetting. After drying, the plates were infested with L2 larvae (6-8 per well). The samples were assessed for mortality, anti-feeding effect, and growth inhibition in comparison to untreated samples 6 days after infestation. Control of Chilo suppressalis by a test sample is given when at least one of the categories mortality, anti-feedant effect, and growth inhibition is higher than the untreated sample.

[4] = test system: Myzus persicae (Green Peach Aphid); assay: Activity against Myzus persicae (green peach aphid), feeding/contact activity; conditions: foliar, 144 h, application rate of 200 ppm, sunflower leaf discs sprayed, aphid population of mixed ages, 6 days after infestation
Protocol: Example B6: Activity Against Myzus persicae (Green Peach Aphid) Feeding/Contact Activity
Sunflower leaf discs were placed onto agar in a 24-well microtiter plate and sprayed with aqueous test solutions prepared from 10′000 ppm DMSO stock solutions. After drying, the leaf discs were infested with an aphid population of mixed ages. The samples were assessed for mortality 6 days after infestation.

[5] = test system: Spodoptera littoralis (Egyptian Cotton Leaf Worm); assay: Activity against Spodoptera littoralis (Egyptian cotton leaf worm); conditions: foliar, 72 h, application rate of 200 ppm, cotton leaf discs sprayed, L1 larvae, 3 days after infestation, read-out: control (at least one of mortality, anti-feedant effect, growth inhibition)
Protocol: Example B8: Activity Against Spodoptera littoralis (Egyptian Cotton Leaf Worm)
Cotton leaf discs were placed onto agar in 24-well microtiter plates and sprayed with aqueous test solutions prepared from 10′000 ppm DMSO stock solutions. After drying the leaf discs were infested with five L1 larvae. The samples were assessed for mortality, anti-feeding effect, and growth inhibition in comparison to untreated samples 3 days after infestation. Control of Spodoptera littoralis by a test sample is given when at least one of the categories mortality, anti-feedant effect, and growth inhibition is higher than the untreated sample.

[6] = test system: Frankliniella occidentalis (Western Flower Thrips); assay: Activity against Frankliniella occidentalis (western flower thrips), feeding/contact activity; conditions: foliar, 168 h, application rate of 200 ppm, sunflower leaf discs sprayed, population of mixed ages, 7 days after infestation
Protocol: Example B5: Activity Against Frankliniella occidentalis (Western Flower Thrips) Feeding/Contact Activity
Sunflower leaf discs were placed on agar in 24-well microtiter plates and sprayed with aqueous test solutions prepared from […] stock solutions. After drying the leaf discs were infested with a Frankliniella population of mixed ages. The samples were assessed for mortality 7 days after infestation.

[7] = test system: Euschistus heros (Neotropical Brown Stink Bug); assay: Activity against Euschistus heros (neotropical brown stink bug); conditions: 120 h, application rate of 200 ppm, soybean leaves sprayed, N2 nymphs, 5 days after infestation, read-out: effect in at least one of the two categories (mortality or growth inhibition)
Protocol: Example B4: Activity Against Euschistus heros (Neotropical Brown Stink Bug)
Soybean leaves on agar in 24-well microtiter plates were sprayed with aqueous test solutions prepared from 10′000 ppm DMSO stock solutions. After drying the leaves were infested with N2 nymphs. The samples were assessed for mortality and growth inhibition in comparison to untreated samples 5 days after infestation.

[8] = test system: Plutella xylostella (Diamond Back Moth); assay: Activity against Plutella xylostella (diamond back moth); conditions: 192 h, application rate of 200 ppm, artificial diet, Plutella eggs, 8 days after infestation, read-out: effect in at least one of the two categories (mortality or growth inhibition)
Protocol: Example B7: Activity Against Plutella xylostella (Diamond Back Moth)
24-well microtiter plates with artificial diet were treated with aqueous test solutions prepared from 10′000 ppm DMSO stock solutions by pipetting. After drying, Plutella eggs were pipetted through a plastic stencil onto a gel blotting paper and the plate was closed with it. The samples were assessed for mortality and growth inhibition in comparison to untreated samples 8 days after infestation.

[9] = test system: Bemisia tabaci (Cotton White Fly); assay: Activity against Bemisia tabaci (cotton white fly), feeding/contact activity; conditions: foliar, 144 h, application rate of 200 ppm, cotton leaf discs sprayed, adult white flies, 6 days after incubation
Protocol: Example B1: Activity Against Bemisia tabaci (Cotton White Fly) Feeding/Contact Activity
Cotton leaf discs were placed on agar in 24-well microtiter plates and sprayed with aqueous test solutions prepared from 10′000 ppm DMSO stock solutions. After drying the leaf discs were infested with adult white flies. The samples were checked for mortality 6 days after incubation.

[10] = test system: Myzus persicae (Green Peach Aphid); assay: Activity against Myzus persicae (green peach aphid), systemic activity; conditions: 144 h, test rate of 24 ppm, roots of infested pea seedlings in test solution (systemic), 6 days
Protocol: Example B9: Activity Against Myzus persicae (Green Peach Aphid) Systemic Activity
Roots of pea seedlings infested with an aphid population of mixed ages were placed directly into aqueous test solutions prepared from 10′000 DMSO stock solutions. The samples were assessed for mortality 6 days after placing seedlings into test solutions.

CCS(=O)(=O)c1c(N2Cc3cc4c(cc3C2=O)OC(F)(F)O4)nc(-c2ccc(C3(C#N)CC3)cc2)n1C [Compound P2, 1-[4-[4-(2,2-difluoro-7-oxo-5H-[1,3]dioxolo[4,5-f]isoindol-6-yl)-5-ethylsulfonyl-1-methyl-imidazol-2-yl]phenyl]cyclopropanecarbonitrile]
≥ 80%: mortality at 12.5 ppm [1] | percent effect (mortality or growth inhibition) at 200 ppm [2] | percent control (mortality, anti-feedant effect or growth inhibition) at 200 ppm [3] | mortality at 200 ppm [4] | percent control (mortality, anti-feedant effect or growth inhibition) at 200 ppm [5] | mortality at 200 ppm [6] | percent effect (mortality or growth inhibition) at 200 ppm [7] | percent effect (mortality or growth inhibition) at 200 ppm [8]

CCS(=O)(=O)c1cc(OC(C)(C)C#N)cnc1N1Cc2cc3c(cc2C1=O)OC(F)(F)O3 [Compound P25, 2-[[6-(2,2-difluoro-7-oxo-5H-[1,3]dioxolo[4,5-f]isoindol-6-yl)-5-ethylsulfonyl-3-pyridyl]oxy]-2-methyl-propanenitrile]
≥ 80%: mortality at 12.5 ppm [1] | percent effect (mortality or growth inhibition) at 200 ppm [2] | percent control (mortality, anti-feedant effect or growth inhibition) at 200 ppm [3] | mortality at 200 ppm [4] | percent control (mortality, anti-feedant effect or growth inhibition) at 200 ppm [5] | percent effect (mortality or growth inhibition) at 200 ppm [7] | mortality at 200 ppm [9] | percent effect (mortality or growth inhibition) at 200 ppm [8]

CCS(=O)(=O)c1cc(C2(C#N)CC2)cnc1N1Cc2cc3c(cc2C1=O)OC(F)(F)O3 [Compound P1, 1-[6-(2,2-difluoro-7-oxo-5H-[1,3]dioxolo[4,5-f]isoindol-6-yl)-5-ethylsulfonyl-3-pyridyl]cyclopropanecarbonitrile]
≥ 80%: mortality at 12.5 ppm [1] | percent effect (mortality or growth inhibition) at 200 ppm [2] | percent control (mortality, anti-feedant effect or growth inhibition) at 200 ppm [3] | mortality at 200 ppm [4] | percent control (mortality, anti-feedant effect or growth inhibition) at 200 ppm [5] | percent effect (mortality or growth inhibition) at 200 ppm [7] | mortality at 200 ppm [9] | percent effect (mortality or growth inhibition) at 200 ppm [8]

CCS(=O)(=O)c1cc(C(C)(C)C#N)cnc1N1Cc2cc3c(cc2C1=O)OC(F)(F)O3 [Compound P22, 2-[6-(2,2-difluoro-7-oxo-5H-[1,3]dioxolo[4,5-f]isoindol-6-yl)-5-ethylsulfonyl-3-pyridyl]-2-methyl-propanenitrile]
≥ 80%: mortality at 12.5 ppm [1] | percent effect (mortality or growth inhibition) at 200 ppm [2] | percent control (mortality, anti-feedant effect or growth inhibition) at 200 ppm [3] | percent control (mortality, anti-feedant effect or growth inhibition) at 200 ppm [5] | percent effect (mortality or growth inhibition) at 200 ppm [7] | mortality at 200 ppm [9] | percent effect (mortality or growth inhibition) at 200 ppm [8]

CCS(=O)(=O)c1c(N2Cc3cc4c(cc3C2=O)OC(F)(F)O4)nc(-c2cnn(CC3CC3)c2)n1C [Compound P9, 6-[2-[1-(cyclopropylmethyl)pyrazol-4-yl]-5-ethylsulfonyl-1-methyl-imidazol-4-yl]-2,2-difluoro-5H-[1,3]dioxolo[4,5-f]isoindol-7-one]
≥ 80%: percent effect (mortality or growth inhibition) at 200 ppm [2] | percent control (mortality, anti-feedant effect or growth inhibition) at 200 ppm [3] | mortality at 200 ppm [4] | percent control (mortality, anti-feedant effect or growth inhibition) at 200 ppm [5] | mortality at 24 ppm [10] | percent effect (mortality or growth inhibition) at 200 ppm [7] | percent effect (mortality or growth inhibition) at 200 ppm [8]

CCS(=O)(=O)c1c(N2Cc3cc4c(cc3C2=O)OC(F)(F)O4)nc(-c2cnn(C(F)F)c2)n1C [Compound P20, 6-[2-[1-(difluoromethyl)pyrazol-4-yl]-5-ethylsulfonyl-1-methyl-imidazol-4-yl]-2,2-difluoro-5H-[1,3]dioxolo[4,5-f]isoindol-7-one]
≥ 80%: percent effect (mortality or growth inhibition) at 200 ppm [2] | percent control (mortality, anti-feedant effect or growth inhibition) at 200 ppm [3] | percent control (mortality, anti-feedant effect or growth inhibition) at 200 ppm [5] | percent effect (mortality or growth inhibition) at 200 ppm [7] | mortality at 200 ppm [9] | percent effect (mortality or growth inhibition) at 200 ppm [8]

CCS(=O)(=O)c1ccc(-c2ncccn2)nc1N1Cc2cc3c(cc2C1=O)OC(F)(F)O3 [Compound P16, 6-(3-ethylsulfonyl-6-pyrimidin-2-yl-2-pyridyl)-2,2-difluoro-5H-[1,3]dioxolo[4,5-f]isoindol-7-one]
≥ 80%: percent effect (mortality or growth inhibition) at 200 ppm [2] | percent control (mortality, anti-feedant effect or growth inhibition) at 200 ppm [3] | mortality at 200 ppm [4] | percent control (mortality, anti-feedant effect or growth inhibition) at 200 ppm [5] | mortality at 24 ppm [10] | percent effect (mortality or growth inhibition) at 200 ppm [7] | percent effect (mortality or growth inhibition) at 200 ppm [8]

CCS(=O)(=O)c1c(N2Cc3cc4c(cc3C2=O)OC(F)(F)O4)nc(-c2cnn(CC(F)(F)F)c2)n1C [Compound P14, 6-[5-ethylsulfonyl-1-methyl-2-[1-(2,2,2-trifluoroethyl)pyrazol-4-yl]imidazol-4-yl]-2,2-difluoro-5H-[1,3]dioxolo[4,5-f]isoindol-7-one]
≥ 80%: percent effect (mortality or growth inhibition) at 200 ppm [2] | percent control (mortality, anti-feedant effect or growth inhibition) at 200 ppm [3] | mortality at 200 ppm [4] | percent control (mortality, anti-feedant effect or growth inhibition) at 200 ppm [5] | mortality at 24 ppm [10] | percent effect (mortality or growth inhibition) at 200 ppm [7] | percent effect (mortality or growth inhibition) at 200 ppm [8]

CCS(=O)(=O)c1c(N2Cc3cc4c(cc3C2=O)OC(F)(F)O4)nc(-c2ncccn2)n1C [Compound P15, 6-(5-ethylsulfonyl-1-methyl-2-pyrimidin-2-yl-imidazol-4-yl)-2,2-difluoro-5H-[1,3]dioxolo[4,5-f]isoindol-7-one]
≥ 80%: percent effect (mortality or growth inhibition) at 200 ppm [2] | percent control (mortality, anti-feedant effect or growth inhibition) at 200 ppm [3] | mortality at 200 ppm [4] | percent control (mortality, anti-feedant effect or growth inhibition) at 200 ppm [5] | mortality at 24 ppm [10] | percent effect (mortality or growth inhibition) at 200 ppm [7] | percent effect (mortality or growth inhibition) at 200 ppm [8]

CCS(=O)(=O)c1cc(C(C)(F)F)cnc1N1Cc2cc3c(cc2C1=O)OC(F)(F)O3 [Compound P23, 6-[5-(1,1-difluoroethyl)-3-ethylsulfonyl-2-pyridyl]-2,2-difluoro-5H-[1,3]dioxolo[4,5-f]isoindol-7-one]
≥ 80%: mortality at 12.5 ppm [1] | percent control (mortality, anti-feedant effect or growth inhibition) at 200 ppm [3] | percent control (mortality, anti-feedant effect or growth inhibition) at 200 ppm [5] | mortality at 200 ppm [9] | percent effect (mortality or growth inhibition) at 200 ppm [8]
